From patent publication US20230240290A1, “USE OF (Z)-3-HEXENYL ESTERS AND METHOD FOR PROTECTING PLANTS AGAINST PESTS” (UNIVERSITAT POLITÈCNICA DE VALÈNCIA, priority 2020, published 2023)

Experiments:
[1] = test system: LOX2 (precursor of JA jasmonic acid); assay: Transcriptional response of LOX2 in Carrizo citrange plants exposed to the volatile; type: in vivo; conditions: intact Carrizo citrange plants exposed 24 h; n=6
Method: Two weeks after seed germination, the seedlings were individually transplanted into pots (8×8×8 cm). The plants were kept in a greenhouse with a plastic cover at approximate climatic conditions of 25±5° C., a relative humidity of 65%±5%, and a natural light photoperiod, about 14:10 h (light:dark). Carrizo citrange plants that had not received any pesticide treatment at 8 weeks of age (approximately 20 cm tall) were used. The volatile (Z)-3-hexenyl propanoate was obtained from Sigma-Aldrich (St. Louis, Mo., USA). The volatile was exposed by using a 2×2 cm piece of filter paper on which 10 μl of a solution containing the corresponding volatile at a concentration of 1:10,000 [(Z)-3-hexenyl propanoate:methanol] was impregnated as an emitting source of the corresponding volatile (Pérez-Hedo, M. et al. Biocontrol, 63: 203-213 (2018)). […]
The methodology followed for the extraction and quantification of gene expression was described by Pérez-Hedo et al. Journal of Pest Science 3: 543-554 (2015). The primers used were forward primer: 5′-[…]-3′ (SEQ ID NO: 11) and reverse primer: 5′-[…]-3′ (SEQ ID NO: 12) for the quantification of LOX2, forward primer: 5′-[…]-3′ (SEQ ID NO: 13) and reverse primer: 5′-[…]-3′ (SEQ ID NO: 14) for PAL and forward primer: 5′-[…]-3′ (SEQ ID NO: 15) and reverse primer: 5′-[…]-3′ (SEQ ID NO: 16) for the NPR5 gene. […]

Diaphorina citri = assay: Citrus field assay with sentinel Murraya paniculata seedlings with and without dispenser; type: in vivo
Method: A Valencia orange field with a high presence of receptive shoots and a population of D. citri adults located in the experimental fields of SWFREC (University of Florida) was selected. […] Sentinel plants that were hung inside the tree canopy were used. The sentinel plants were seedlings of Murraya paniculata with shoots receptive to the laying of D. citri. 7 seedlings with a dispenser (polymeric dispenser that was loaded with 1.5 ml of (Z)-3-hexenyl propanoate) and 7 seedlings without a dispenser were used. Each seedling was distributed in the field following a random block design (using a row of trees as a block), and one seedling with a dispenser and another one without was placed in each block. The seedlings were located at a minimum distance of 50 meters from each other to avoid any edge effect.
After 4 days of placing the seedlings, these were collected from the field and taken to the laboratory, where the number of eggs per shoot in each of the seedlings was counted under a binocular loupe.

[2] = test system: PR1 (marker gene for the SA signaling pathway); assay: Field (commercial greenhouse) assay, transcriptional response of PR1 in tomato plants; type: in vivo, tomato cv Raf; conditions: LD dispenser every 20 m2, at 30 and 60 days
Method: To know the behavior of the dispensers loaded with (Z)-3-hexenyl propionate under real cultivation conditions, four commercial greenhouses for tomato cv Raf located in Xilxes (Castellón province), with a history of problems with T. absoluta contamination at the end of winter, were selected. An experimental design of randomized blocks was carried out where each greenhouse was considered a block with two treatments per block and 4 repetitions per treatment. […]
Twenty plants randomly chosen by repetition were sampled weekly for 11 weeks, beginning 30 Jan. […] First, the number of leaflets infested by T. absoluta per plant was counted. Then the number of N. tenuis (adults and nymphs) throughout the apical third of each plant (leaves, flowers and shoots) was counted. Following the methodology described above, 6 samples were taken from the apical part of each plant per repetition, and these samples were immediately introduced into liquid nitrogen to quantify the expression of the PR1 and PIN2 genes (described in Example 1 and Example 2). The expression of these genes was quantified one day before, 4, and 8 weeks after hanging the dispensers in the greenhouses.

Compound: CC/C=C\CCOC(=O)CC [(Z)-3-hexenyl propanoate]
- Transcriptional response of LOX2 compared to control [1]: significantly overexpressed
- Reduction of D. citri (laying, eggs per shoot) (Diaphorina citri; Valencia orange field, Murraya paniculata sentinel seedlings, dispenser with 1.5 ml, 4 days): more than 70%
- Laying of D. citri (Diaphorina citri; citrus plant exposed to the volatile, summary statement): reduced by more than half
- Expression of PR1 compared to plants in the control zone [2]: significantly higher
